Experimental data published in paper PMC6225165, “Design and Synthesis of Novel Dehydroepiandrosterone Analogues as Potent Antiproliferative Agents” (Molecules : A Journal of Synthetic Chemistry and Natural …, 2018).

Assays:
[1] = tested on: A549; assay: MTT antiproliferative assay, A549; format: cell-based, human; conditions: 48 h, MTT; for inhibition at 100 µM: Homo sapiens, A549, read-out: % Growth Inhibition at 100 μM A549
Description: (§1) The antiproliferative activity of the title compounds against the panel of six different human cancer cell lines, viz. lung (A549), cervix (HeLa), liver (HepG-2), liver (BEL7402), colorectal (HCT116), and breast (MCF-7) cell lines, was evaluated using a standard MTT-based colorimetric assay. All cell lines were obtained from the Key Laboratory of Natural Resources and Functional Molecules of the Changbai Mountain (Yanbian University) and maintained in Dulbecco’s modified Eagle’s medium (DMEM) and RPMI Media 1640 (RPMI1640), supplemented with 10% foetal bovine serum (FBS) at 37 °C in a humidified atmosphere containing 5% CO2.
(§2) Cells were plated in 96-well plates at appropriate densities to ensure exponential growth throughout the experimental period (9 × 10^3 cells per well), and then allowed to adhere for 24 h. Cells were then treated for 48 h with each compound. After 48 h of incubation, 10 μL of MTT solution were added to each well to a final concentration of 2 mg·mL^−1. Plates were then incubated for a further 4 h. After incubation, the MTT solution was removed and 150 μL of DMSO were added to each well for coloration. The plates were shaken vigorously for 10 min at room temperature to ensure complete solubilisation. The optometric density (OD) was read on a microplate reader (EL × 800, BioTek, Highland Park, Winooski, VT, USA) at 492 nm, and the data were subsequently analysed. The percentage of cell growth inhibition was calculated from the following equation:Inhibitory rate (%) = [1 − (ODtreated − ODblank)/(ODcontrol − ODblank)] × 100.
(§3) To obtain the antiproliferative activity of compounds 2a–2w, the compounds were selected in the same way with four serial concentrations (1, 10, 50 and 100 μM) of those compounds. The optometric density (OD) reading was then used to calculate the IC50.

[2] = tested on: Hela; assay: MTT antiproliferative assay, Hela; format: cell-based, human; conditions: 48 h, MTT; for inhibition at 100 µM: Homo sapiens, read-out: % Growth Inhibition at 100 μM Hela
Description: as §1, §2, §3

[3] = tested on: HepG-2; assay: MTT antiproliferative assay, HepG-2; format: cell-based, human; conditions: 48 h, MTT; for inhibition at 100 µM: Homo sapiens, HepG2, read-out: % Growth Inhibition at 100 μM HepG-2
Description: as §1, §2, §3

[4] = tested on: BEL7402; assay: MTT antiproliferative assay, BEL7402; format: cell-based, human; conditions: 48 h, MTT; for inhibition at 100 µM: Homo sapiens, Bel-7402, read-out: % Growth Inhibition at 100 μM BEL7402
Description: as §1, §2, §3

[5] = tested on: HCT116; assay: MTT antiproliferative assay, HCT116; format: cell-based, human; conditions: 48 h, MTT; for inhibition at 100 µM: Homo sapiens, HCT-116, read-out: % Growth Inhibition at 100 μM HCT116
Description: as §1, §2, §3

[6] = tested on: MCF-7; assay: MTT antiproliferative assay, MCF-7; format: cell-based, human; conditions: 48 h, MTT; for inhibition at 100 µM: Homo sapiens, MCF7, read-out: % Growth Inhibition at 100 μM MCF-7
Description: as §1, §2, §3

[7] = tested on: human normal liver (L02) cells; assay: MTT assay on normal cell line L02; format: cell-based; conditions: 48 h, MTT; for inhibition at 100 µM: Homo sapiens, L02, read-out: % Growth Inhibition at 100 μM L02; for inhibition at 100 µM / % Growth Inhibition at 100 μM L02: normal cells

## COc1cc(-n2cc(/C=C3\CC4C5CC=C6CC(O)CCC6(C)C5CCC4(C)C3=O)nn2)cc(OC)c1OC (centres unmarked) [Compound 2u, (E)-3-hydroxy-10,13-dimethyl-16-((1-(3,4,5-trimethoxyphenyl)-1H-1,2,3-triazol-4-yl)methylene)-1,3,4,7,8,9,10,11,12,13,15,16-dodecahydro-2H-cyclopenta[a]phenanthren17(14H)-one]
[1]
  inhibition at 100 µM: 40.3%
[2]
  inhibition at 100 µM: 60.5%
[3]
  inhibition at 100 µM: 59.1%
[4]
  inhibition at 100 µM: 51.2%
[5]
  inhibition at 100 µM: 59.2%
[6]
  inhibition at 100 µM: 36.3%
[7]
  inhibition at 100 µM: 36.4%

## CC12CCC3C(CC=C4CC(O)CCC43C)C1C/C(=C\c1cn(-c3ccc([N+](=O)[O-])cc3)nn1)C2=O (stereo not drawn) [Compound 2v, (E)-3-hydroxy-10,13-dimethyl-16-((1-(4-nitrophenyl)-1H-1,2,3-triazol-4-yl)methylene)1,3,4,7,8,9,10,11,12,13,15,16-dodecahydro-2H-cyclopenta[α]phenan-thren-17(14H)-one]
[1]
  % Growth Inhibition at 100 μM A549: NA (NA: antiproliferative activity <5%)
[2]
  % Growth Inhibition at 100 μM Hela: NA (NA: antiproliferative activity <5%)
[3]
  % Growth Inhibition at 100 μM HepG-2: 12.4%
[4]
  % Growth Inhibition at 100 μM BEL7402: 13.2%
[5]
  % Growth Inhibition at 100 μM HCT116: 10.2%
[6]
  % Growth Inhibition at 100 μM MCF-7: NA (NA: antiproliferative activity <5%)
[7]
  % Growth Inhibition at 100 μM L02: 5.5%

## CC12CCC3C(CC=C4CC(O)CCC43C)C1C/C(=C\c1cn(-c3ccc(C(F)(F)F)cc3)nn1)C2=O (stereo not drawn) [Compound 2w, (E)-3-hydroxy-10,13-dimethyl-16-((1-(4-(trifluoromethyl)phenyl)-1H-1,2,3-triazol4-y)methylene)-1,3,4,7,8,9,10,11,12,13,15,16-dodecahydro-2H-cyclopenta[α] phenanthren-17(14H)-one]
[1]
  % Growth Inhibition at 100 μM A549: 75.2%
  IC50: 72.5 µM
[2]
  % Growth Inhibition at 100 μM Hela: 44.1%
  IC50: > 100 µM
[3]
  % Growth Inhibition at 100 μM HepG-2: 48.3%
  IC50: > 100 µM
[4]
  % Growth Inhibition at 100 μM BEL7402: 62.2%
  IC50: 94 µM
[5]
  % Growth Inhibition at 100 μM HCT116: 75.0%
  IC50: 22.7 µM
[6]
  % Growth Inhibition at 100 μM MCF-7: 41.3%
  IC50: > 100 µM
[7]
  % Growth Inhibition at 100 μM L02: 57.6%
[7]; normal cell line
  IC50: 93.7 µM

## C[C@]12CC[C@H](O)CC1=CC[C@@H]1[C@@H]2CC[C@]2(C)C(=O)CC[C@@H]12 [DHEA, Dehydroepiandrosterone]
[1]
  inhibition at 100 µM: 24.8%
[2]
  inhibition at 100 µM: 15.7%
[3]
  inhibition at 100 µM: 10.9%
[4]
  inhibition at 100 µM: 46.5%
[5]
  inhibition at 100 µM: 47.3%
[6]
  inhibition at 100 µM: 17.1%
[7]
  inhibition at 100 µM: 44.6%
